Assay results: patent US20210154190A1, “SHP2 INHIBITOR COMPOSITIONS AND METHODS FOR TREATING CANCER” (Revolution Medicines, Inc., priority 2018, published 2021)

How the values were obtained:
SHP2 A72V = target: T1, SHP2 A72V (Homo sapiens, UniProt Q06124, A72V); test: EGF-induced pERK AlphaLISA in T-REx-293-SHP2 cells, A72V; type: cell-based; details: Variant A72V
T1 construct: expressed in transfected cells; host or cells: Flp-In T-REx-293 (T-REx-293-SHP2)
Description: (§1) An experimental system was creating to test the activity of SHP2 mutants on an isogenic background (FIG. 6). The Flp-In T-REx-293 cell line was obtained from Gibco® and cultivated in high glucose DMEM™ containing 2 mM L-glutamine (Hyclone®), supplemented with 10% FBS (Hyclone®), 1% penicillin/streptomycin (Gibco®), 100 μg/mL Zeocin™ (Gibco®), and 15 μg/mL blasticidin (Gibco®) in a humidified cell culture incubator at 37° C., 5% CO2.
(§2) Wild type or mutant SHP2 variants were synthesized and subcloned into the pcDNA5/FRT/TO vector (ThermoFisher). Plasmids were co-transfected with the pOG44 Flp recombinase expression plasmid (ThermoFisher®) into Flp-In T-REx-293 cells using X-tremegene 9 DNA transfection reagent (Sigma®), according to the manufacturer's instructions. […]
(§3) For the final 5 minutes of drug treatment, cells were stimulated with 50 ng/mL Epidermal Growth Factor (Sigma®). […] Samples were read using an EnVision Multilabel Plate Reader (Perkin Elmer®) using standard AlphaLISA settings. Assay data was plotted and EC50 values were determined using four-parameter concentration-response model in GraphPad Prism 7. […]

SHP2 E69K = target: T2, SHP2 E69K (Homo sapiens, UniProt Q06124, E69K); test: EGF-induced pERK AlphaLISA in T-REx-293-SHP2 cells, E69K; type: cell-based; details: Variant E69K
T2 construct: expressed in transfected cells; host or cells: Flp-In T-REx-293 (T-REx-293-SHP2)
Description: as §1, §2, §3

Cc1nc(N2CCC3(CC2)CO[C@@H](C)[C@H]3N)c(CO)nc1-c1cccc(Cl)c1Cl [Compound B]
Cellular sensitivity (SHP2 A72V): no (Sensitive if IC50 < 2000 nM) | Cellular sensitivity (SHP2 E69K): yes (Sensitive if IC50 < 2000 nM)
